Data from PMC10714828, “Proteomic analysis of anti-MRSA activity of caerin 1.1/1.9 in a murine skin infection model and their in vitro anti-biofilm effects against Acinetobacter baumannii” (Microbiology Spectrum, 2023).
Read-outs that look alike come from different tables or passages of the source.

What was measured:
A. baumannii (GDM1.609) = experiment: MIC by micro-broth dilution (CLSI); format: cell-based, Acinetobacter baumannii; details: Fig. 1D; for inhibitory activity on A. baumannii (in words): MIC test; for MIC: micro-broth dilution, 37°C, 24 h, OD 600 nm, three replicates
Description: (§1) The MIC of F3 against different bacteria were measured by using a micro-broth dilution method developed by the Clinical and Laboratory Standards Institute ([33]). Briefly, the bacterial suspension with absorbance ranging from 0.08 to 0.10 was prepared and 100 µL of the bacterial suspension to a 96 U-shaped well culture plate. The dalbavancin HCl and sodium fusidate were prepared into 328 µM, polymyxin B was prepared at 840.7 µM with phosphate-buffered saline (PBS). Concentrations of F1 and F3 and of F-K were diluted to […] and 479.8 μM, and they were added into 96-well plates with concentration gradients of 310.5, 155.2, 77.6, 38.8, 19.4, 9.7, and 4.9 µM, respectively, with three replicates for each concentration, the equivalent volume of PBS was added as a growth control. The bacteria were cultured at 37°C for 24 h. The optical density (OD) value at 600 nm was measured with a MULTISKAN GO microplate spectrophotometer.

E. coli (GDM1.176) = experiment: MIC by micro-broth dilution (CLSI); format: cell-based, Escherichia coli; details: for inhibition of E. coli growth (in words): MIC test, Fig. 1E
Description: as §1

P. aeruginosa (GDM1.443) = experiment: MIC by micro-broth dilution (CLSI); format: cell-based,  Pseudomonas aeruginosa; details: Fig. 1F; for inhibition of P. aeruginosa growth (in words): MIC test
Description: as §1

bacteria = details: after repeatedly in vitro culture; cited from earlier work
From the text: Moreover, caerin 1.1 has an additive antibacterial effect when used together with caerin 1.9. Caerin 1.1 and caerin 1.9 prepared in the form of a temperature-sensitive gel inhibit MRSA growth in a skin bacterial infecti ...

[1] = pH 5.5; cited from earlier work

Molecule: CN[C@H]1C(=O)N[C@@H]2Cc3ccc(cc3)Oc3cc4cc(c3O[C@@H]3O[C@H](C(=O)O)[C@@H](O)[C@H](O)[C@H]3NC(=O)CCCCCCCCC(C)C)Oc3ccc(cc3Cl)[C@@H](O)[C@@H]3NC(=O)[C@H](NC(=O)[C@@H]4NC(=O)[C@@H](NC2=O)c2cc(cc(O)c2Cl)Oc2cc1ccc2O)c1ccc(O)c(c1)-c1c(O[C@H]2O[C@H](CO)[C@@H](O)[C@H](O)[C@@H]2O)cc(O)cc1[C@@H](C(=O)NCCCN(C)C)NC3=O [Dalbavancin, dalbavancin]
- inhibitory activity on A. baumannii (in words) (A. baumannii (GDM1.609)): no inhibitory activity
- inhibition of E. coli growth (in words) (E. coli (GDM1.176)): incapable of stopping these bacterial growth
- inhibition of P. aeruginosa growth (in words) (P. aeruginosa (GDM1.443)): incapable of stopping these bacterial growth

Molecule: CC(=O)O[C@H]1C[C@@]2(C)[C@@H](C[C@@H](O)[C@H]3[C@@]4(C)CC[C@@H](O)[C@@H](C)[C@@H]4CC[C@@]32C)/C1=C(\CCC=C(C)C)C(=O)O [Sodium Fusidate, Sodium fusidate]
- MIC (A. baumannii (GDM1.609); Acinetobacter baumannii, read-out: MIC): 19.7 µM
- inhibitory activity on A. baumannii (in words) (A. baumannii (GDM1.609)): no inhibitory activity
- MIC (E. coli (GDM1.176); Escherichia coli, 24 h): 78.7 µM
- inhibition of E. coli growth (in words) (E. coli (GDM1.176)): incapable of stopping these bacterial growth
- inhibition of P. aeruginosa growth (in words) (P. aeruginosa (GDM1.443)): incapable of stopping these bacterial growth
- MIC (P. aeruginosa (GDM1.443); Pseudomonas aeruginosa, micro-broth dilution, 37°C, 24 h, OD 600 nm, three replicates): 78.7 µM

Molecule: GLFGVLGSIAKHVLPHVVPVIAEKL-NH2 [F3]
- inhibitory activity on A. baumannii (in words) (A. baumannii (GDM1.609)): comparable inhibition
- MIC (A. baumannii (GDM1.609)): around 5 μM
- inhibition of E. coli growth (in words) (E. coli (GDM1.176)): suppression of the growth of E. coli and P. aeruginosa at high concentrations
- inhibition of P. aeruginosa growth (in words) (P. aeruginosa (GDM1.443)): suppression of the growth of E. coli and P. aeruginosa at high concentrations
- induction of bacterial resistance (bacteria): did not induce bacterial resistance
- stability at pH and temperature [1]: stable at low pH (5.5–7.4) and room temperature

Molecule: GLLSVLGSVAKHVLPHVVPVIAEHL-NH2 [F1]
- inhibitory activity on A. baumannii (in words) (A. baumannii (GDM1.609)): comparable inhibition
- MIC (A. baumannii (GDM1.609)): around 5 μM
- inhibition of E. coli growth (in words) (E. coli (GDM1.176)): suppression of the growth of E. coli and P. aeruginosa at high concentrations
- inhibition of P. aeruginosa growth (in words) (P. aeruginosa (GDM1.443)): suppression of the growth of E. coli and P. aeruginosa at high concentrations
- stability at pH and temperature [1]: stable at low pH (5.5–7.4) and room temperature

Molecule: PLLLLLPSLLTATL-NH2 [F-K, positive control antimicrobial peptide]
- inhibitory activity on A. baumannii (in words) (A. baumannii (GDM1.609)): comparable inhibition
- inhibition of E. coli growth (in words) (E. coli (GDM1.176)): the best at inhibiting these two strains of bacteria
- inhibition of P. aeruginosa growth (in words) (P. aeruginosa (GDM1.443)): the best at inhibiting these two strains of bacteria
